{"source": "patent US6046235A", "about": "“Sulfur-containing amino acid derivatives” (Santen Pharmaceutical Co., Ltd., priority 1996, dated 2000)", "key": {"LTA4 hydrolase [1]": {"system": "LTA4 hydrolase", "conditions": "literature; cited from earlier work"}, "[2]": {"system": "collagen-induced arthritis model", "conditions": "J. Med. Chem., 37, 3197-3199 (1994); cited from earlier work"}, "LTA4 hydrolase [3]": {"target": "T1, LTA4 hydrolase (Cavia porcellus, UniProt P19602)", "T1 construct": "Lungs were excised from a Hartley guinea pig; from tissue; host or cells: Hartley guinea pig lung, 100,000×g supernatant, 40-70% ammonium sulfate fraction, dialyzed", "T1 sequence (P19602 1-611)": "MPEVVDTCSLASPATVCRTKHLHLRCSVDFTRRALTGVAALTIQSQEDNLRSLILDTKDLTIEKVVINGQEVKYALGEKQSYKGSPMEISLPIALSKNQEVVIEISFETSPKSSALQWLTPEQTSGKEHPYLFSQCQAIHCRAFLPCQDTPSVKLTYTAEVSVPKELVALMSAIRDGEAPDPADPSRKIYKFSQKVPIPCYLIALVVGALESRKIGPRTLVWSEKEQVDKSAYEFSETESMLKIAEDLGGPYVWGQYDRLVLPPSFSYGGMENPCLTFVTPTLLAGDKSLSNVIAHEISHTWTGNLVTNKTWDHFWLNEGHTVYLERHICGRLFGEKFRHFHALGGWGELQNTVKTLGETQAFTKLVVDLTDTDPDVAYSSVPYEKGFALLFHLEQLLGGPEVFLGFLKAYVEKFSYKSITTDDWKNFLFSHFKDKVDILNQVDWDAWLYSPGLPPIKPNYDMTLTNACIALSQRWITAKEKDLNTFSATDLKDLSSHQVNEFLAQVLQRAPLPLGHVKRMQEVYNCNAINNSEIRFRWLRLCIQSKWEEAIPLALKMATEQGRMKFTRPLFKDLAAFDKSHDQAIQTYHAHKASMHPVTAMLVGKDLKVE", "experiment": "LTA4 hydrolase inhibition (LTB4 formed from LTA4, guinea pig lung enzyme preparation)", "assay_type": "biochemical", "conditions": "Table 2; guinea pig lung enzyme preparation; LTA4 63 μM; 37° C., one minute; pH 7.8; read-out: IC50 (concentration required to inhibit LTA4 hydrolase by 50%)", "procedure": "Effects of the present compounds on LTA4 hydrolase were examined according to the method described in the literature.\nLungs were excised from a Hartley guinea pig (body weight: 330 g). The lungs were homogenized in phosphoric acid buffer (50 mM, pH 7.4, containing 1 mM ethylenediaminetetraacetic acid (EDTA) and 1 mM dithiothreitol (DTT) having weight three times that of the lungs under ice-cooling. The homogenate was centrifuged at low speed (800×g) for 20 minutes, centrifuged at high speed (10,000×g) for 20 minutes and ultracentrifuged (100,000×g) for 60 minutes to give a supernatant. The supernatant was brought to 40% saturation by adding a saturated aqueous ammonium sulfate solution (pH 7.0-7.2, containing 1 mM DTT) dropwise under ice-cooling and centrifuged at high speed (10,000×g) for 20 minutes. The resulting supernatant was brought to 70% saturation by adding a saturated aqueous ammonium sulfate solution (pH 7.0-7.2, containing 1 mM DTT) dropwise and centrifuged at high speed (10,000×g) for 20 minutes. The obtained pellet was dissolved in 2 ml of Tris-acetic acid buffer (20 mM, pH 7.8, containing 1 mM DTT) and dialyzed in 2 liters of the solution to give the enzyme preparation.\nLTA4 used, which is the substrate, was prepared by hydrolyzing LTA4 methyl ester and dissolved in ethanol.\nIn order to examine effects of the present compounds on the enzyme preparation, reactions were performed under the following condition using mixed solutions consisting of the composition shown in Table 1.\nHEPES buffer 50 mM, pH 7.8\nEnzyme preparation 0.4-0.6 mg protein\nAqueous DTT solution 3 mM\nThe above-mentioned solution (50 μl ) was incubated at 37° C. for one minute. To the reaction mixture was added 100 μl of a mixed liquid of acetonitrile-ethanol-acetic acid (150:50:3, volume ratio) under ice-cooling. The mixture was allowed to stand at -20° C. for 30 minutes and centrifuged at high speed (10,000×g) for five minutes to give a supernatant. An amount of LTB4 produced in the supernatant was measured by high-speed liquid chromatography.\nThe degree of the inhibitory effect of each test compound on LTA4 hydrolase is expressed by the inhibition rate calculated by the following equation. [formula]\nA: amount of LTB4 formed in the absence of the test compound\nB: amount of LTB4 formed in the presence of the test compound\nExperiments were carried out under the same conditions as those of the above-mentioned \"Pharmacological Test\"."}}}
{"smiles": "O=C(O)c1cccc(C2CO2)c1", "note": "(centres unmarked) [3-oxiranylbenzoic acid]", "values": [{"measurement": "inhibitory effect on LTA4 hydrolase (in words)", "setting": "LTA4 hydrolase [1]", "value": "inhibitory effects on LTA4 hydrolase"}]}
{"smiles": "O=C(O)C1(c2ccc3c(c2)OC[C@H](Cc2ccc(-c4ccccc4)cc2)[C@H]3O)CCCC1", "note": "[(+)-1-(3S, 4R)-[3-(4-phenylbenzyl)-4-hydroxychroman-7-yl]cyclopentanecarboxylic acid]", "values": [{"measurement": "inhibitory effect on LTA4 hydrolase (in words)", "setting": "LTA4 hydrolase [1]", "value": "inhibitory effect on LTA4 hydrolase"}, {"measurement": "onset of arthritis (in words)", "setting": "[2]", "value": "inhibited the onset of arthritis"}]}
{"smiles": "CSc1ccc(CSC[C@H](NC(=O)[C@H](C)CS)C(=O)O)cc1", "note": "[Compound No. 2-16, (2R)-2-[(2S)-3-Mercapto-2-methylpropionylamino]-3-(4-methylthiobenzylthio)propionic acid]", "values": [{"measurement": "IC50", "setting": "LTA4 hydrolase [3]", "value": 46, "unit": "nM"}]}
{"smiles": "C[C@H](CSC(=O)c1ccccc1)C(=O)N[C@@H](CSCc1ccc([N+](=O)[O-])cc1)C(=O)O", "note": "[Compound No. 1-28, (2R)-2-[(2S)-3-(Benzoylthio)-2-methylpropionylamino]-3-(4-nitrobenzylthio)propionic acid]", "values": [{"measurement": "IC50", "setting": "LTA4 hydrolase [3]", "value": 290, "unit": "nM"}]}
